Test results published in ChEMBL document CHEMBL1132520, “Antimalarial activity of 3-hydroxyalkyl-2-methylene-propionic acid derivatives” (1999).
Activity calls are given as the source filed them. The calls are words filed in the database; no cut-off is given here.

Experiments:
Mus musculus [1] = assay: In vivo antimalarial activity against Plasmodium berghei in mice (Mus musculus); Inactive; type: functional, organism-based
Mus musculus [2] = assay: Antimalarial activity against Plasmodium berghei evaluated in terms of mean survival time for mice (Mus musculus) at a dose of 160 mg/kg; type: functional
Mus musculus [3] = assay: Anti-malarial activity against Plasmodium berghei evaluated in terms of mean survival time for mice (Mus musculus) at a dose of 20 mg/kg; type: functional
Mus musculus [4] = assay: Antimalarial activity against Plasmodium berghei evaluated in terms of mean survival time for mice (Mus musculus) at a dose of 40 mg/kg; type: functional
Mus musculus [5] = assay: Antimalarial activity against Plasmodium berghei evaluated in terms of mean survival time for mice (Mus musculus) at a dose of 80 mg/kg; type: functional
Plasmodium falciparum [6] = assay: In vitro antimalarial activity for Plasmodium falciparum at 100 uM/well dose at 24 hrs in Schizont maturation assay; type: functional
Plasmodium falciparum [7] = assay: In vitro antimalarial activity for Plasmodium falciparum at 10 uM/well dose at 24 hrs in Schizont maturation assay; type: functional
Plasmodium falciparum [8] = assay: In vitro antimalarial activity for Plasmodium falciparum at 1 uM/well dose at 24 hrs in Schizont maturation assay; type: functional
Plasmodium falciparum [9] = assay: In vitro antimalarial activity for Plasmodium falciparum at 2.5 uM/well dose at 24 hrs in Schizont maturation assay; type: functional
Plasmodium falciparum [10] = assay: In vitro antimalarial activity for Plasmodium falciparum at 20 uM/well dose at 24 hrs in Schizont maturation assay; type: functional
Plasmodium falciparum [11] = assay: In vitro antimalarial activity for Plasmodium falciparum at 50 uM/well dose at 24 hrs in Schizont maturation assay; type: functional
Plasmodium falciparum [12] = assay: In vitro antimalarial activity for Plasmodium falciparum at 5 uM/well dose at 24 hrs in Schizont maturation assay; type: functional
Plasmodium falciparum [13] = assay: In vitro inhibition of Plasmodium falciparum at 50 uM/well dose at 72 hrs in total parasite growth assay; type: functional
Plasmodium falciparum [14] = assay: In vitro inhibition of Plasmodium falciparum at 5 uM/well dose at 72 hrs in total parasite growth assay; type: functional
Plasmodium falciparum [15] = assay: In vitro inhibition of Plasmodium falciparum at 0.25 uM/well dose at 72 hrs in total parasite growth assay; type: functional
Plasmodium falciparum [16] = assay: In vitro inhibition of Plasmodium falciparum at 0.5 uM/well dose at 72 hrs in total parasite growth assay; type: functional
Plasmodium falciparum [17] = assay: In vitro inhibition of Plasmodium falciparum at 2.5 uM/well dose at 72 hrs in total parasite growth assay; type: functional
Plasmodium falciparum [18] = assay: In vitro inhibition of Plasmodium falciparum at 20 uM/well dose at 72 hrs in total parasite growth assay; Not determined; type: functional
Plasmodium falciparum [19] = assay: In vitro inhibition of Plasmodium falciparum at 1.0 uM/well dose at 72 hrs in total parasite growth assay; type: functional
Plasmodium falciparum [20] = assay: In vitro inhibition of Plasmodium falciparum at 100 uM/well dose at 72 hrs in total parasite growth assay; type: functional
Plasmodium falciparum [21] = assay: In vitro inhibition of Plasmodium falciparum at 10 uM/well dose at 72 hrs in total parasite growth assay; type: functional
Plasmodium falciparum [22] = assay: In vitro antimalarial activity for Plasmodium falciparum at 0.50 uM/well dose at 24 hrs in Schizont maturation assay; type: functional
Plasmodium falciparum [23] = assay: In vitro antimalarial activity for Plasmodium falciparum at 0.10 uM/well dose at 24 hrs in Schizont maturation assay; type: functional
Plasmodium falciparum [24] = assay: In vitro antimalarial activity for Plasmodium falciparum at 0.25 uM/well dose at 24 hrs in Schizont maturation assay; type: functional
Plasmodium falciparum [25] = assay: In vitro inhibition of Plasmodium falciparum at 25 uM/well dose at 72 hrs in total parasite growth assay; type: functional
Mus musculus [26] = assay: In vivo anti-malarial activity against Plasmodium berghei in mice (Mus musculus) at a dose of 160 mg/kg; Active; type: functional, organism-based; set-up: dose 160 mg/kg
Mus musculus [27] = assay: In vivo anti-malarial activity against Plasmodium berghei in mice (Mus musculus) at a dose of 80 mg/kg; Active; type: functional, organism-based; set-up: dose 80 mg/kg
Plasmodium falciparum [28] = assay: In vitro inhibition of chloroquine-resistant Plasmodium falciparum at 0.25 uM/well dose at 72 hrs in total parasite growth assay; type: functional
Plasmodium falciparum [29] = assay: In vitro inhibition of chloroquine-resistant Plasmodium falciparum at 0.5 uM/well dose at 72 hrs in total parasite growth assay; type: functional
Plasmodium falciparum [30] = assay: In vitro antimalarial activity for chloroquine-resistant Plasmodium falciparum at 50 uM/well dose at 24 hrs in Schizont maturation assay; type: functional
Plasmodium falciparum [31] = assay: In vitro antimalarial activity for chloroquine-resistant Plasmodium falciparum at 5 uM/well dose at 24 hrs in Schizont maturation assay; type: functional
Plasmodium falciparum [32] = assay: In vitro antimalarial activity for Plasmodium falciparum at 500 uM/well dose at 24 hrs in Schizont maturation assay; type: functional
Plasmodium falciparum [33] = assay: In vitro antimalarial activity for chloroquine-resistant Plasmodium falciparum at 0.25 uM/well dose at 24 hrs in Schizont maturation assay; type: functional
Plasmodium falciparum [34] = assay: In vitro antimalarial activity for chloroquine-resistant Plasmodium falciparum at 100 uM/well dose at 24 hrs in Schizont maturation assay; type: functional
Plasmodium falciparum [35] = assay: In vitro antimalarial activity for chloroquine-resistant Plasmodium falciparum at 10 uM/well dose at 24 hrs in Schizont maturation assay; type: functional
Plasmodium falciparum [36] = assay: In vitro antimalarial activity for chloroquine-resistant Plasmodium falciparum at 1 uM/well dose at 24 hrs in Schizont maturation assay; type: functional
Plasmodium falciparum [37] = assay: In vitro antimalarial activity for chloroquine-resistant Plasmodium falciparum at 2.5 uM/well dose at 24 hrs in Schizont maturation assay; type: functional
Plasmodium falciparum [38] = assay: In vitro antimalarial activity for chloroquine-resistant Plasmodium falciparum at 20 uM/well dose at 24 hrs in Schizont maturation assay; type: functional
Plasmodium falciparum [39] = assay: In vitro inhibition of Plasmodium falciparum at 20 uM/well dose at 72 hrs in total parasite growth assay; type: functional
Plasmodium falciparum [40] = assay: In vitro inhibition of chloroquine-resistant Plasmodium falciparum at 1.0 uM/well dose at 72 hrs in total parasite growth assay; type: functional
Plasmodium falciparum [41] = assay: In vitro antimalarial activity for chloroquine-resistant Plasmodium falciparum at 0.10 uM/well dose at 24 hrs in Schizont maturation assay; type: functional
Plasmodium falciparum [42] = assay: In vitro antimalarial activity for chloroquine-resistant Plasmodium falciparum at 0.5 uM/well dose at 24 hrs in Schizont maturation assay; type: functional

| Compound | Mean survival time (Mus musculus [2]) | Mean survival time (Mus musculus [3]) | Mean survival time (Mus musculus [4]) | Mean survival time (Mus musculus [5]) | inhibition at 100 µM (Plasmodium falciparum [6]) | inhibition at 10 µM (Plasmodium falciparum [7]) | inhibition at 1 µM (Plasmodium falciparum [8]) | inhibition at 2.5 µM (Plasmodium falciparum [9]) | inhibition at 20 µM (Plasmodium falciparum [10]) | inhibition at 50 µM (Plasmodium falciparum [11]) | inhibition at 5 µM (Plasmodium falciparum [12]) | PGI (Plasmodium falciparum [13]) | PGI (Plasmodium falciparum [14]) | PGI (Plasmodium falciparum [15]) | PGI (Plasmodium falciparum [16]) | PGI (Plasmodium falciparum [17]) | PGI (Plasmodium falciparum [19]) | PGI (Plasmodium falciparum [20]) | PGI (Plasmodium falciparum [21]) | inhibition at 0.5 µM (Plasmodium falciparum [22]) | other results |
| --- | --- | --- | --- | --- | --- | --- | --- | --- | --- | --- | --- | --- | --- | --- | --- | --- | --- | --- | --- | --- | --- |
| C=C(C(=O)OC)C(O)c1ccccc1 (centres undefined) | 12 days | 6 days | 7 days | 10.2 days | 100% | 100% | 43% | 64% | 100% | 100% | 93% | 100% | 100% | 0% | 7.5% | 62.5% | 40% | 100% | 100% | 7% | Activity (Mus musculus [1]): inactive; PGI (Plasmodium falciparum [18]): 100%; inhibition at 0.1 µM (Plasmodium falciparum [23]): 0%; inhibition at 0.25 µM (Plasmodium falciparum [24]): 0% |
| C=C(C(=O)OC)C(O)c1ccco1 (centres undefined) | – | – | – | – | – | – | – | – | – | – | – | – | 85.7% | 0% | – | 42.8% | 20% | 100% | 98% | – | PGI (Plasmodium falciparum [25]): 100% |
| C=C(C#N)C(O)c1ccc([N+](=O)[O-])cc1 (centres undefined) | 14.4 days | 9.4 days | 11.8 days | 12.8 days | 100% | 100% | 75.2% | 84% | 100% | 100% | 100% | 100% | 100% | 83% | 92% | 100% | 100% | 100% | 100% | 68% | Activity (Mus musculus [26]): Active; Activity (Mus musculus [27]): Active; PGI (Plasmodium falciparum [28]): 73%; PGI (Plasmodium falciparum [29]): 82%; inhibition at 50 µM (Plasmodium falciparum [30]): 100%; inhibition at 5 µM (Plasmodium falciparum [31]): 100%; inhibition at 500 µM (Plasmodium falciparum [32]): 100%; inhibition at 0.25 µM (Plasmodium falciparum [33]): 58%; inhibition at 100 µM (Plasmodium falciparum [34]): 100%; inhibition at 10 µM (Plasmodium falciparum [35]): 100%; inhibition at 1 µM (Plasmodium falciparum [36]): 86%; inhibition at 2.5 µM (Plasmodium falciparum [37]): 100%; inhibition at 20 µM (Plasmodium falciparum [38]): 100%; PGI (Plasmodium falciparum [39]): 100%; PGI (Plasmodium falciparum [25]): 100%; PGI (Plasmodium falciparum [40]): 94%; inhibition at 0.1 µM (Plasmodium falciparum [23]): 41.2%; inhibition at 0.1 µM (Plasmodium falciparum [41]): 47.7%; inhibition at 0.25 µM (Plasmodium falciparum [24]): 56.4%; inhibition at 0.5 µM (Plasmodium falciparum [42]): 75% |
| C=C(C#N)C(OCCC#N)c1ccc2c(c1)OCO2 (centres undefined) | 14.2 days | 7.8 days | 9.2 days | 11.4 days | 100% | 93% | 43% | 57% | 100% | 100% | 64% | 100% | 52.5% | 0% | 10% | 40% | 25% | 100% | 90% | 36% | Activity (Mus musculus [26]): Active; PGI (Plasmodium falciparum [39]): 95%; inhibition at 0.1 µM (Plasmodium falciparum [23]): 0%; inhibition at 0.25 µM (Plasmodium falciparum [24]): 6% |
| C=C(C(=O)OC)C(O)/C=C(\C)CCC=C(C)C (centres undefined) | 11.4 days | 7.2 days | 8.4 days | 9.6 days | – | – | – | – | – | – | – | – | – | – | – | – | – | – | – | – | Activity (Mus musculus [1]): inactive |
| C=C(C(=O)OC)C(O)c1cccnc1 (centres undefined) | – | – | – | – | 100% | 100% | 43% | 64% | 100% | 100% | 100% | 100% | 92.5% | 5% | 25% | 75% | 50% | 100% | 100% | 29% | PGI (Plasmodium falciparum [18]): 100%; inhibition at 0.1 µM (Plasmodium falciparum [23]): 0%; inhibition at 0.25 µM (Plasmodium falciparum [24]): 5% |
